Like-named read-outs stand apart in the source and are kept apart here.
Tests used:
Pyricularia oryzae = assay: whole plant or invertebrate; assay type: in vivo; conditions: 192 h, read-out: efficacy
Leptosphaeria nodorum [1] = assay: In vitro test for the calculation of the ED50-value with microorganisms, Example Q4: Leptosphaeria nodorum; assay type: cell-based; conditions: liquid culture, spore suspension, 4 to 7 days incubation, spectrometric measurement of mycelium growth
Septoria tritici [2] = assay: In vitro test for the calculation of the ED50-value with microorganisms, Example Q4: Septoria tritici; assay type: cell-based; conditions: liquid culture, spore suspension, 4 to 7 days incubation, spectrometric measurement of mycelium growth
Puccinia recondita = assay: In vivo preventive test on Puccinia recondita (brown rust on wheat), Examples C and R3; conditions: Puccinia recondita, 264 h, preventive spray, evaluated 11 days after inoculation
Sphaerotheca fuliginea = assay: In vivo preventive test on Sphaerotheca fuliginea (powdery mildew on cucurbits), Examples F and R6; conditions: Podosphaera fuliginea, 360 h, preventive spray, evaluated 15 days after inoculation
[3] = system: Blumeria graminis fsp. hordei; assay: In vivo preventive Blumeria test (barley), Example K; conditions: 168 h, 500 ppm of active ingredient, preventive spray, evaluated 7 days after inoculation, read-out: efficacy
Source text: After the spray coating has been dried, the plants are dusted with spores of Blumeria graminis fsp. hordei.

Botrytis cinerea [4] = assay: In vivo preventive test on Botrytis cinerea (grey mould) on gherkin, Examples B, Q1 and R2; conditions: for pest or weed control at 500 ppm / pest or weed control at 100 ppm: Botrytis cinerea; for pest or weed control at 100 ppm: Example Q1, rate of application 100 ppm
Septoria tritici [5] = assay: In vivo preventive test on Septoria tritici (leaf spot on wheat), Examples E, Q3 and R5; conditions: Zymoseptoria tritici, 576 h
Phakopsora pachyrhizi = assay: In vivo preventive Phakopsora test (soybeans), Example I; conditions: 168 h, 100 ppm of active ingredient, preventive spray, evaluated 7 days after inoculation, read-out: efficacy
Pyrenophora teres = assay: In vivo preventive test on Pyrenophora teres (net blotch on barley), Examples D, Q2 and R4; conditions: Pyrenophora teres, 336 h
Botrytis cinerea [6] = assay: In vitro test for the calculation of the ED50-value with microorganisms, Example Q4: Botrytis cinerea; assay type: cell-based; conditions: liquid culture, spore suspension, 4 to 7 days incubation, spectrometric measurement of mycelium growth
Venturia inaequalis = assay: In vivo preventive Venturia test (apples), Example J; conditions: 240 h, read-out: efficacy
Description: After the spray coating has dried on, the plants are inoculated with an aqueous conidia suspension of the causal agent of apple scab (Venturia inaequalis) and then remain for 1 day in an incubation cabinet at approximately 20° C. and a relative atmospheric humidity of 100%.
The plants are then placed in a greenhouse at approximately 21° C. and a relative atmospheric humidity of approximately 90%.
The test is evaluated 10 days after the inoculation.

Fusarium culmorum [7] = assay: In vitro test for the calculation of the ED50-value with microorganisms, Example Q4: Fusarium culmorum; assay type: cell-based; conditions: liquid culture, spore suspension, 4 to 7 days incubation, spectrometric measurement of mycelium growth
Description: • Solvent: Dimethyl sulfoxide • Culture medium: 14.6 g anhydrous D-glucose (VWR), 7.1 g Mycological Peptone (Oxoid), 1.4 g granulated Yeast Extract (Merck), QSP liter • Inoculum: Spore suspension
Fungicides were solubilized in DMSO and the solution used to prepare the required range of concentrations. The final concentration of DMSO used in the assay was ≤1%.
A spore suspension was prepared and diluted to the desired spore density.
Fungicides were evaluated for their ability to inhibit spore germination and mycelium growth in liquid culture assay. The compounds were added in the desired concentration to the culture medium with spores. After 4 to 7 days incubation, fungi-toxicity of compounds was determined by spectrometric measurement of mycelium growth. Inhibition of fungal growth was determined by comparing the absorbance values in wells containing the fungicides with the absorbance in control wells without fungicides.

Uromyces appendiculatus = assay: In vivo preventive test on Uromyces appendiculatus (bean rust), Examples G and R7; conditions: 264 h, preventive spray, evaluated 11 days after inoculation
Alternaria brassicae = assay: In vivo preventive test on Alternaria brassicae (leaf spot on radish), Examples A and R1; conditions: Alternaria brassicae, 144 h
[8] = Measurement of LogP values by HPLC on reversed phase columns (EEC directive 79/831 Annex V.A8); assay type: physicochemical; conditions: method [a]: LC-UV, acidic range, 0.1% formic acid in water and acetonitrile as eluent; Table 1
Description: Measurement of Log P values was performed as outlined above.

Alternaria solani = assay: In vivo preventive Alternaria test (tomatoes), Example H; conditions: 72 h, 100 ppm of active ingredient, preventive spray, evaluated 3 days after inoculation, read-out: efficacy
Leptosphaeria nodorum [9] = assay: In vivo preventive Leptosphaeria nodorum test (wheat), Example N; conditions: Parastagonospora nodorum, 192 h, 500 ppm of active ingredient, preventive spray, evaluated 8 days after inoculation, read-out: efficacy
Source text: After the spray coating has been dried, the plants are sprayed with a spore suspension of Leptosphaeria nodorum.

Fusarium culmorum [10] = assay: In vivo preventive Fusarium culmorum test (wheat), Example L; conditions: 120 h, 500 ppm of active ingredient, preventive spray, evaluated 5 days after inoculation, read-out: efficacy
Description: After the spray coating has been dried, the plants are slightly injured by using a sandblast and afterwards they are sprayed with a conidia suspension of Fusarium culmorum.
The test is evaluated 5 days after the inoculation.

Fusarium graminearum = assay: whole plant or invertebrate; assay type: in vivo; conditions: in Hordeum vulgare, 120 h, read-out: efficacy
[11] = system: Fusarium nivale (var. majus); assay: In vivo preventive Fusarium nivale (var. majus) test (wheat), Example O; conditions: Microdochium nivale, 120 h, 500 ppm of active ingredient, preventive spray, evaluated 5 days after inoculation, read-out: efficacy
Source text: After the spray coating has been dried, the plants are slightly injured by using a sandblast and afterwards they are sprayed with a conidia suspension of Fusarium nivale (var. majus).

[12] = 500 ppm of active ingredient, wheat, read-out: efficacy
[13] = Example R3, wheat, read-out: Efficacy in %
[14] = Example R3, wheat, 500 ppm, read-out: Efficacy in %
[15] = 500 ppm of active ingredient, gherkin, read-out: efficacy
[16] = Example R6, gherkin, read-out: Efficacy in %
[17] = Example R6, gherkin, 500 ppm, read-out: Efficacy in %
[18] = 500 ppm of active ingredient, preventive spray, evaluated 4 to 5 days after inoculation, read-out: efficacy
[19] = Example Q1, rate of application 500 ppm, read-out: Efficacy in %
[20] = Example R2, rate of application 100 ppm
[21] = Example R2, rate of application 500 ppm
[22] = 500 ppm of active ingredient, wheat, preventive spray, evaluated 24 days after inoculation, read-out: efficacy
[23] = Example Q3, rate of application 100 ppm, wheat, read-out: Efficacy in %
[24] = Example Q3, rate of application 500 ppm, wheat, read-out: Efficacy in %
[25] = Example R5, wheat, preventive spray, 100 ppm, evaluated 24 days after inoculation, read-out: Efficacy in %
[26] = Example R5, wheat, preventive spray, 500 ppm, evaluated 24 days after inoculation, read-out: Efficacy in %
[27] = 500 ppm of active ingredient, preventive spray, evaluated 14 days after inoculation, read-out: efficacy
[28] = Example Q2, rate of application 100 ppm, read-out: Efficacy in %
[29] = Example Q2, rate of application 500 ppm, read-out: Efficacy in %
[30] = Example R4, rate of application 100 ppm, read-out: Efficacy in %
[31] = Example R4, rate of application 500 ppm, read-out: Efficacy in %
[32] = 500 ppm of active ingredient, bean, read-out: efficacy
[33] = Example R7, bean, read-out: Efficacy in %
[34] = Example R7, bean, 500 ppm, read-out: Efficacy in %

## OC(Cc1ccc(Cl)cc1F)(Cn1cncc1Cl)C1(Cl)CC1 (centres unmarked) [Example I-27, 2-(1-chlorocyclopropyl)-1-(4-chloro-2-fluorophenyl)-3-(5-chloro-1H-imidazol-1-yl)propan-2-ol]
Pyricularia oryzae
  pest or weed control at 500 ppm: 90 to 100%
Leptosphaeria nodorum [1]
  Leptosphaeria nodorum ED50 value in ppm: <0.006 ppm
Septoria tritici [2]
  Septoria tritici ED50 value in ppm: <0.006 ppm
Puccinia recondita; [12]
  pest or weed control at 500 ppm: 90 to 100%
Puccinia recondita; [13]
  pest or weed control at 100 ppm: 89%
Puccinia recondita; [14]
  pest or weed control at 500 ppm: 98%
Sphaerotheca fuliginea; [15]
  pest or weed control at 500 ppm: 90 to 100%
Sphaerotheca fuliginea; [16]
  pest or weed control at 100 ppm: 100%
Sphaerotheca fuliginea; [17]
  pest or weed control at 500 ppm: 100%
[3]
  pest or weed control at 500 ppm: 90 to 100%
Botrytis cinerea [4]; [18]
  pest or weed control at 500 ppm: 90 to 100%
Botrytis cinerea [4]; read-out: Efficacy in %
  pest or weed control at 100 ppm: 99%
Botrytis cinerea [4]; [19]
  pest or weed control at 500 ppm: 100%
Botrytis cinerea [4]; [20]
  Efficacy in %: 99%
Botrytis cinerea [4]; [21]
  Efficacy in %: 100%
Septoria tritici [5]; [22]
  pest or weed control at 500 ppm: 90 to 100%
Septoria tritici [5]; [23]
  pest or weed control at 100 ppm: 81%
Septoria tritici [5]; [24]
  pest or weed control at 500 ppm: 94%
Septoria tritici [5]; [25]
  pest or weed control at 100 ppm: 94%
Septoria tritici [5]; [26]
  pest or weed control at 500 ppm: 81%
Phakopsora pachyrhizi
  pest or weed control at 100 ppm: 90 to 100%
Pyrenophora teres; [27]
  pest or weed control at 500 ppm: 90 to 100%
Pyrenophora teres; [28]
  pest or weed control at 100 ppm: 94%
Pyrenophora teres; [29]
  pest or weed control at 500 ppm: 98%
Pyrenophora teres; [30]
  pest or weed control at 100 ppm: 94%
Pyrenophora teres; [31]
  pest or weed control at 500 ppm: 98%
Botrytis cinerea [6]
  Botrytis cinerea ED50 value in ppm: 0.02 ppm
Venturia inaequalis
  pest or weed control at 100 ppm: 90 to 100%
Fusarium culmorum [7]
  Fusarium culmorum ED50 value in ppm: <0.006 ppm
Uromyces appendiculatus; [32]
  pest or weed control at 500 ppm: 90 to 100%
Uromyces appendiculatus; [33]
  pest or weed control at 100 ppm: 20%
Uromyces appendiculatus; [34]
  pest or weed control at 500 ppm: 100%
Alternaria brassicae; 500 ppm of active ingredient, preventive spray, evaluated 6 days after inoculation, read-out: efficacy
  pest or weed control at 500 ppm: 90 to 100%
Alternaria brassicae; Example R1, rate of application 100 ppm, read-out: Efficacy in %
  pest or weed control at 100 ppm: 50%
Alternaria brassicae; Example R1, rate of application 500 ppm, read-out: Efficacy in %
  pest or weed control at 500 ppm: 92%
[8]
  chromatographic logP: 2.48
Alternaria solani
  pest or weed control at 100 ppm: 90 to 100%
Leptosphaeria nodorum [9]
  pest or weed control at 500 ppm: 90 to 100%

## N#Cc1cncn1CC(O)(Cc1ccc(Cl)cc1F)C1(Cl)CC1 (centres unmarked) [Example I-29]
Fusarium culmorum [10]
  pest or weed control at 500 ppm: 80 to 89%
Leptosphaeria nodorum [1]
  Leptosphaeria nodorum ED50 value in ppm: 0.02 ppm
Septoria tritici [2]
  Septoria tritici ED50 value in ppm: <0.006 ppm
Puccinia recondita; [12]
  pest or weed control at 500 ppm: 90 to 100%
Puccinia recondita; [13]
  pest or weed control at 100 ppm: 94%
Puccinia recondita; [14]
  pest or weed control at 500 ppm: 98%
Sphaerotheca fuliginea; [15]
  pest or weed control at 500 ppm: 90 to 100%
Sphaerotheca fuliginea; [16]
  pest or weed control at 100 ppm: 100%
Sphaerotheca fuliginea; [17]
  pest or weed control at 500 ppm: 100%
[3]
  pest or weed control at 500 ppm: 90 to 100%
Botrytis cinerea [4]; [18]
  pest or weed control at 500 ppm: 90 to 100%
Botrytis cinerea [4]; read-out: Efficacy in %
  pest or weed control at 100 ppm: 86%
Botrytis cinerea [4]; [19]
  pest or weed control at 500 ppm: 99%
Botrytis cinerea [4]; [20]
  Efficacy in %: 86%
Botrytis cinerea [4]; [21]
  Efficacy in %: 99%
Septoria tritici [5]; [22]
  pest or weed control at 500 ppm: 90 to 100%
Septoria tritici [5]; [23]
  pest or weed control at 100 ppm: 100%
Septoria tritici [5]; [24]
  pest or weed control at 500 ppm: 100%
Septoria tritici [5]; [25]
  pest or weed control at 100 ppm: 100%
Septoria tritici [5]; [26]
  pest or weed control at 500 ppm: 100%
Phakopsora pachyrhizi
  pest or weed control at 100 ppm: 90 to 100%
Fusarium graminearum
  pest or weed control at 500 ppm: 90 to 100%
Pyrenophora teres; [27]
  pest or weed control at 500 ppm: 80 to 89%
Pyrenophora teres; [28]
  pest or weed control at 100 ppm: 83%
Pyrenophora teres; [29]
  pest or weed control at 500 ppm: 89%
Pyrenophora teres; [30]
  pest or weed control at 100 ppm: 83%
Pyrenophora teres; [31]
  pest or weed control at 500 ppm: 89%
Botrytis cinerea [6]
  Botrytis cinerea ED50 value in ppm: 0.26 ppm
Venturia inaequalis
  pest or weed control at 100 ppm: 90 to 100%
Fusarium culmorum [7]
  Fusarium culmorum ED50 value in ppm: 0.01 ppm
Uromyces appendiculatus; [32]
  pest or weed control at 500 ppm: 90 to 100%
Uromyces appendiculatus; [33]
  pest or weed control at 100 ppm: 100%
Uromyces appendiculatus; [34]
  pest or weed control at 500 ppm: 100%
Alternaria solani
  pest or weed control at 100 ppm: 90 to 100%
[11]
  pest or weed control at 500 ppm: 90 to 100%
Leptosphaeria nodorum [9]
  pest or weed control at 500 ppm: 90 to 100%

Source: patent US10231453B2, “5-substituted imidazole derivatives” (BAYER CROPSCIENCE AKTIENGESELLSCHAFT, priority 2015, dated 2019)
